According to US12691151B2, “Methods and compositions for improving oncolytic virus infection for nonpermissive cancers” (Arizona Board of Regents on behalf of Arizona State …, priority 2019, dated 2026):
“Also recorded” adds a separate entry of the source.

What was measured:
Assay type in all cases: cell-based, human
MDA-MB-435 cells [1] = tested on: MDA-MB-435 cells
HT29 cells [2] = tested on: HT29 cells
A549 cell line = experiment: MYXV replication in the permissive A549 cell line
PANC-1 cells [3] = tested on: PANC-1 cells
MDA-MB-435 cells [4] = tested on: MDA-MB-435 cells; remark: listed apart in the source
PANC-1 cells [5] = tested on: PANC-1 cells; remark: listed apart in the source
HT29 cells [6] = tested on: HT29 cells; remark: listed apart in the source
PANC-1 cells [7] = tested on: PANC-1 cells; remark: listed apart in the source

CCC(=C/[C@H](C)C/C=C/C(C)=C/[C@@H](C)C(=O)[C@@H](C)[C@H](O)[C@@H](C)C/C(C)=C/C(=O)O)/C=C/[C@@H]1OC(=O)C=C[C@@H]1C [Leptomycin B]
viral replication (virus titer) (MDA-MB-435 cells [1]): enhanced MYXV gene expression and replication | viral replication (virus titer) (HT29 cells [2]): enhanced viral replication; also recorded: enhanced MYXV replication | viral replication (A549 cell line): only increased viral replication at an MOI of 0.1 or lower | GFP (early/late) and TdTomato (late) expression (PANC-1 cells [3]): enhanced GFP (early/late) and TdTomato (late) expression; also recorded: enhanced MYXV gene expression | formation of foci (PANC-1 cells [3]): allowed formation of small foci | GFP (early/late) and TdTomato (late) expression (MDA-MB-435 cells [4]): enhanced GFP (early/late) and TdTomato (late) expression; also recorded: enhanced MYXV gene expression | formation of foci (MDA-MB-435 cells [4]): allowed formation of small foci | viral replication (virus titer) (PANC-1 cells [5]): enhanced MYXV gene expression and replication | GFP (early/late) and TdTomato (late) expression (HT29 cells [6]): enhanced MYXV early (GFP) and late (TdTomato) gene expression levels | formation of foci (HT29 cells [6]): allowed formation of small foci | cell viability (ATP), Leptomycin B pretreatment plus MYXV (PANC-1 cells [7]): further reduced the viability; also recorded: reduced cell viability | cell viability (ATP) (PANC-1 cells [7]; 40 h): sensitive to Leptomycin B treatment alone
